Experimental data: US20250268876A1, “TREATMENT OF HIDRADENITIS SUPPURATIVA WITH ORISMILAST” (UNION THERAPEUTICS A/S, priority 2021, published 2025)
pEC50, pIC50: −log10 of the molar value. Where “and” joins values, the source holds several entries; their conditions need not be identical. Identical values can stand only once. Like-named read-outs stand apart in the source and are kept apart here.

Key:
[1] = tested on: TNF-α secretion from human whole blood; test: Whole blood TNF-α secretion assay (LPS or SEB); assay type: cell-based; settings: for times more potent than Roflumilast / times more potent than apremilast: mean EC50 values; for Emax: read-out: Emax; for pEC50: read-out: EC50
PDE4C2 = PDE4C2 (Homo sapiens, UniProt Q08493); assay type: biochemical
Protocol: (§1) Enzyme Preparations: Partially purified human recombinant phosphodiesterases (PDEs) were obtained by cloning cDNA and expressing in S. frugiperda insect cells using a baculovirus expression system. Cells are harvested from culture by centrifuging at 400×g for 5 minutes. Cell pellet is resuspended in 20 ml of RIPA Buffer (150 mM NaCl, 10 mM Tris, 0.1% NP-40, pH8.3), 4 ml/200 ml of culture, plus protease inhibitors (100 μl/10 ml) and incubated on ice for 10-20 minutes then spun at 3500×g for 10 minutes at 4° C. Supernatant is kept and the pellet thrown away.
(§2) Tritium-labelled cyclic AMP is hydrolysed to 5′-AMP o by PDE. The 5′-AMP is then further hydrolysed to adenosine by nucleotidase in snake venom. An anion-exchange resin binds all charged nucleotides and leaves [^3H]adenosine as the only labelled compound to be counted by liquid scintillation.
(§3) 50 μl of diluted PDE enzyme was incubated with 50 μl of [^3H]-cAMP (specific activity 25 Ci/mmol) and 11 μl of 50% DMSO (or compound dilution) for 20 minutes at 30° C. The enzyme was diluted in 20 mM Tris HCl pH7.4 (×2.2 final concentration) and [3H]-cAMP was diluted in 10 mM MgCl2, 40 mM Tris HCl pH 7.4 (×2.2 final concentration). Reactions were carried out in Greiner 96 deep well 1 ml master-block. The plates were centrifuged for 9 seconds before the 20 minutes incubation. […] After incubation 200 μl Dowex resin (1×8, 200-400 mesh) was added and the plate shaken for 20 minutes then centrifuged for 3 minutes at 1000×g. 50 μl of supernatant was removed and added to 200 μl of MicroScint-20 in white plates (Greiner 96well Optiplate) and shaken for 30 minutes before reading on Perkin Elmer TopCount Scintillation Counter. IC50 values were calculated using GraphPad Prism software (version 8).

PDE4D1 = PDE4D1 (Homo sapiens, UniProt Q08499); assay type: biochemical
Protocol: as §1, §2, §3

PDE4B2 = PDE4B2 (Homo sapiens, UniProt Q07343); assay type: biochemical
Protocol: as §1, §2, §3

PDE4B1 = PDE4B1 (Homo sapiens, UniProt Q07343); assay type: biochemical
Protocol: as §1, §2, §3

PDE4B3 = PDE4B3 (Homo sapiens, UniProt Q07343); assay type: biochemical
Protocol: as §1, §2, §3

PDE4D4 = PDE4D4 (Homo sapiens, UniProt Q08499); assay type: biochemical
Protocol: as §1, §2, §3

PDE4D7 = PDE4D7 (Homo sapiens, UniProt Q08499); assay type: biochemical
Protocol: as §1, §2, §3

PDE4D5 = PDE4D5 (Homo sapiens, UniProt Q08499); assay type: biochemical
Protocol: as §1, §2, §3

PDE4D3 [2] = molecular target: T1, PDE4D3 (Homo sapiens, UniProt Q08499); assay type: biochemical
Protocol: as §1, §2, §3

PDE4D2 = PDE4D2 (Homo sapiens, UniProt Q08499); assay type: biochemical
Protocol: as §1, §2, §3

human PBMC = test: Viability, serum-free, hPBMC, LPS (ATP); assay type: cell-based
Protocol: Viability, Serum-Free, hPBMC, LPS
The viability of the cells from the TNF-α assay is measured in the wells using the ATP vialight kit (Perkin Elmer, ATP-lite M, cat. no 6016949). The assay detects the amount of ATP using a bioluminescent method that utilizes an enzyme, luciferase, which catalyses the formation of light from ATP and luciferin according to the following reaction:
The emitted light intensity is linearly related to the ATP concentration and is measured using a luminometer. The effect (inhibition of viability) of a test compound was calculated using equation 1:
[formula] • where • So=Emitted light intensity reflecting the ATP concentration in the presence of 0.1% DMSO, • Sc=Emitted light intensity reflecting the ATP concentration in the presence of 10 μM Actinomycin in 0.1% DMSO and • Sx=Emitted light intensity reflecting the ATP concentration in the presence of test compound in 0.1% DMSO.
This model describes a sigmoidal curve with an adjustable baseline, a. […]
[formula] • where • C=concentration of test compound • % Effect=normalized response calculated as described in Equation 1 • Emin=min response as compound concentration approaches 0 • Emax=max response as concentration of tested compound is increasing • EC50=Concentration of tested compound giving a response in the middle of Emin and Emax • nH=Hill coefficient or curve slope.

PDE4D3 [3] = molecular target: T1, PDE4D3; test: IMAP fluorescence polarisation PDE4 subtype assay; assay type: biochemical; settings: compound 10^−7 M
[4] = Homo sapiens, 24 h, LPS 1 μg/mL, 24 hours, donor 2
[5] = Homo sapiens, 24 h, SEB 1 μg/mL, 24 hours, donor 1
[6] = Homo sapiens, 24 h, SEB 1 μg/mL, 24 hours, donor 2
[7] = Homo sapiens, 48 h, LPS 1 μg/mL, 48 hours, donor 1
[8] = Homo sapiens, 48 h, LPS 1 μg/mL, 48 hours, donor 2
[9] = Homo sapiens, 48 h, SEB 1 μg/mL, 48 hours, donor 1
[10] = Homo sapiens, 48 h, SEB 1 μg/mL, 48 hours, donor 2

T1 sequence (Q08499 1-673 isoform Q08499-2): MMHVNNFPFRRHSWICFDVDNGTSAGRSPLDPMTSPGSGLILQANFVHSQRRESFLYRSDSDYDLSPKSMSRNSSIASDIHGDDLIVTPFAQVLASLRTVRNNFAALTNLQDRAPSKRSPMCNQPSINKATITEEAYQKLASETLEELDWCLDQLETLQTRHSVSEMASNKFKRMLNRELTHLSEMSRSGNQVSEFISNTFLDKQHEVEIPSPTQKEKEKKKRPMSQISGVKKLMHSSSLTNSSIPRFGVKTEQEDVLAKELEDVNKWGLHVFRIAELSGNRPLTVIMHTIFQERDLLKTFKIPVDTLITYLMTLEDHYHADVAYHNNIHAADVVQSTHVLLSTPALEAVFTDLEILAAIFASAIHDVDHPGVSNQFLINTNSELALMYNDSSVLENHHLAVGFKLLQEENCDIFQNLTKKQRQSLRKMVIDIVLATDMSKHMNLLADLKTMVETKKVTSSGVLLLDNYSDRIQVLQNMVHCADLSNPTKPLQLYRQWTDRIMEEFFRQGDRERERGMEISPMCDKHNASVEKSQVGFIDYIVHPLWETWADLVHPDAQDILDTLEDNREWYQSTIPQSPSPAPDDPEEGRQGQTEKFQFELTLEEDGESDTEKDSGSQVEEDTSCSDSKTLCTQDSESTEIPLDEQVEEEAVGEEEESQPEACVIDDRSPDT
Chain of PDE4D4 (Q08499 whole entry): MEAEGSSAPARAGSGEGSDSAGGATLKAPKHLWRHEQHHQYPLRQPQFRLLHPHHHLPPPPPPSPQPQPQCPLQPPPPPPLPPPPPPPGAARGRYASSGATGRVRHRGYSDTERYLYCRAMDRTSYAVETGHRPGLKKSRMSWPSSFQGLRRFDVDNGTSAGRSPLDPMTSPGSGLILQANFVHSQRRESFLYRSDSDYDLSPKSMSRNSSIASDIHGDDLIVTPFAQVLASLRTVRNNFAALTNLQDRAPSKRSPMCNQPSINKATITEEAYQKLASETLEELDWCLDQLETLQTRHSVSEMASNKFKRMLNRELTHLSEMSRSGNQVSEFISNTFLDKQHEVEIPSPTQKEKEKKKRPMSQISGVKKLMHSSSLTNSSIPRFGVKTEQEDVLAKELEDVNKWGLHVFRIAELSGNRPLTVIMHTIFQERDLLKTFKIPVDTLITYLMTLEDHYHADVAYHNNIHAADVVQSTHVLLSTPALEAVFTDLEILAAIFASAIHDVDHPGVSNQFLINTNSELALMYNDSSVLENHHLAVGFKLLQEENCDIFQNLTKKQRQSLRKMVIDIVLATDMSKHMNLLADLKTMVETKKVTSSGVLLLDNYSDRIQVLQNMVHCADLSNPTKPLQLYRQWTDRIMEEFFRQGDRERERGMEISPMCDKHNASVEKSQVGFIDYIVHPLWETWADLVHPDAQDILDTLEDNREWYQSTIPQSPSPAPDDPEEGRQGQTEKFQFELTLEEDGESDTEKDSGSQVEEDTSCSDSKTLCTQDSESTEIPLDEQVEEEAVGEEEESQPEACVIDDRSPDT
Chain of PDE4B2 (Q07343 1-564 isoform Q07343-2): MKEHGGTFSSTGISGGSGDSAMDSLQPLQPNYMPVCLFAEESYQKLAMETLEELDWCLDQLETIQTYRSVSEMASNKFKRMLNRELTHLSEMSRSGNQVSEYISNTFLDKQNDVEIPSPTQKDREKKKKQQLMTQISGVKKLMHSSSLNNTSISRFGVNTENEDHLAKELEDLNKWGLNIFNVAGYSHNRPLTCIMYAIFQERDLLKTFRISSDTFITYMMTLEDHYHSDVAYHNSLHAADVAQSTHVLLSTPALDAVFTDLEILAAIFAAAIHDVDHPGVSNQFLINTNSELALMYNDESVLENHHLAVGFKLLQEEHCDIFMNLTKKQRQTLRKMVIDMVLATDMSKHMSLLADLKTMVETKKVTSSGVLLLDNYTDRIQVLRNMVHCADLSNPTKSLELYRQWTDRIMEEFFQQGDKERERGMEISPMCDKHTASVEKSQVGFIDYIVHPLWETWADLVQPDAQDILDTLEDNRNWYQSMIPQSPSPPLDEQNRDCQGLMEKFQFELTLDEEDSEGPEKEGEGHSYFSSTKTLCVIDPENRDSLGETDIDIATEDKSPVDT
Chain of PDE4B1 (Q07343 whole entry): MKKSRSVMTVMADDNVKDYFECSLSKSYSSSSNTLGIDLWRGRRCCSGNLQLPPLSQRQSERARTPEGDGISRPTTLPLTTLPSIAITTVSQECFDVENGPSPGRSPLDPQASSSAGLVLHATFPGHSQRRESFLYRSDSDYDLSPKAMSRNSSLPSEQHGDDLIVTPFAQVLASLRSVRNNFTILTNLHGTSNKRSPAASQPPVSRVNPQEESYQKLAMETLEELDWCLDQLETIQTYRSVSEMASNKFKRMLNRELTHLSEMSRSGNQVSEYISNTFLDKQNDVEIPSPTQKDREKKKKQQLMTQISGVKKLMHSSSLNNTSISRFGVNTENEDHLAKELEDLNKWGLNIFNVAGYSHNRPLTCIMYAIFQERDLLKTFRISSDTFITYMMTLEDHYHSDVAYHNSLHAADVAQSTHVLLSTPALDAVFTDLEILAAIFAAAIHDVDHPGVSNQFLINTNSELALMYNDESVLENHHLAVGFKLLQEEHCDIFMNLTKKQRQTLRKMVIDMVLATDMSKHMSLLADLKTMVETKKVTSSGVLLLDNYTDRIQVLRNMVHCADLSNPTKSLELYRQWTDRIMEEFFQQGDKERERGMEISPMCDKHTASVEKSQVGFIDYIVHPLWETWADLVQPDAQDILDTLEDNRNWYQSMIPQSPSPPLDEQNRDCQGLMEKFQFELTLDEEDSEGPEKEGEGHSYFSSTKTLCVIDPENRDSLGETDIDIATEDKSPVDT
Chain of PDE4D5 (Q08499 1-745 isoform Q08499-6): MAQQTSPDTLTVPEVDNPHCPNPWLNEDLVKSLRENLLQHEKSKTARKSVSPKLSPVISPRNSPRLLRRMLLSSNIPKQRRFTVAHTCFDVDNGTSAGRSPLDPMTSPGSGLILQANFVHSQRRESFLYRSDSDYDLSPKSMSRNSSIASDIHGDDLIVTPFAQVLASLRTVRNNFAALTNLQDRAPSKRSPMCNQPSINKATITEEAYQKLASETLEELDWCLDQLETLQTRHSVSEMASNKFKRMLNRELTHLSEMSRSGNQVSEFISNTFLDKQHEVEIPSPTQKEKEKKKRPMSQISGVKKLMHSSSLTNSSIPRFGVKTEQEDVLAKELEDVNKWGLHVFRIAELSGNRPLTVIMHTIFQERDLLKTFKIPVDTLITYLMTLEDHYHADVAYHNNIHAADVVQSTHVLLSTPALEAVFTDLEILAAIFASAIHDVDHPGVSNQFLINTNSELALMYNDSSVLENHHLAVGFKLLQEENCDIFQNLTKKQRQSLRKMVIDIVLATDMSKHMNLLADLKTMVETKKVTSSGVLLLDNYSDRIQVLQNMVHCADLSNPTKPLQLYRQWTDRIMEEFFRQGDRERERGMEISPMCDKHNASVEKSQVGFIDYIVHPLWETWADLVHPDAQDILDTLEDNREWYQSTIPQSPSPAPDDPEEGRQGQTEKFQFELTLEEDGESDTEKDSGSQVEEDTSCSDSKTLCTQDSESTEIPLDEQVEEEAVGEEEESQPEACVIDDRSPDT
Chain of PDE4D2 (Q08499 303-809): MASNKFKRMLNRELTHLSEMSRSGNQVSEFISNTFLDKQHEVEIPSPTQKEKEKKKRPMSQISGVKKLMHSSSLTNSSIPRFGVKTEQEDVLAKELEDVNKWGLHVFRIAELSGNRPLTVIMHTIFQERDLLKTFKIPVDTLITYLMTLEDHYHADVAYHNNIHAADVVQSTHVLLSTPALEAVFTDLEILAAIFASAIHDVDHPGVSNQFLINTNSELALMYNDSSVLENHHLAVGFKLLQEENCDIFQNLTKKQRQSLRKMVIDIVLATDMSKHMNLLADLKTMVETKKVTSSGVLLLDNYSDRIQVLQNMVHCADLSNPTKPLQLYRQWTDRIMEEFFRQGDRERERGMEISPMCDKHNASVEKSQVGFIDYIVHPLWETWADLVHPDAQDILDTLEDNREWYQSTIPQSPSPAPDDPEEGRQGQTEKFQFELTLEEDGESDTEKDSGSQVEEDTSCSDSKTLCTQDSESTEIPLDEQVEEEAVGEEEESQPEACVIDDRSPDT
Chain of PDE4B3 (Q07343 1-721 isoform Q07343-3): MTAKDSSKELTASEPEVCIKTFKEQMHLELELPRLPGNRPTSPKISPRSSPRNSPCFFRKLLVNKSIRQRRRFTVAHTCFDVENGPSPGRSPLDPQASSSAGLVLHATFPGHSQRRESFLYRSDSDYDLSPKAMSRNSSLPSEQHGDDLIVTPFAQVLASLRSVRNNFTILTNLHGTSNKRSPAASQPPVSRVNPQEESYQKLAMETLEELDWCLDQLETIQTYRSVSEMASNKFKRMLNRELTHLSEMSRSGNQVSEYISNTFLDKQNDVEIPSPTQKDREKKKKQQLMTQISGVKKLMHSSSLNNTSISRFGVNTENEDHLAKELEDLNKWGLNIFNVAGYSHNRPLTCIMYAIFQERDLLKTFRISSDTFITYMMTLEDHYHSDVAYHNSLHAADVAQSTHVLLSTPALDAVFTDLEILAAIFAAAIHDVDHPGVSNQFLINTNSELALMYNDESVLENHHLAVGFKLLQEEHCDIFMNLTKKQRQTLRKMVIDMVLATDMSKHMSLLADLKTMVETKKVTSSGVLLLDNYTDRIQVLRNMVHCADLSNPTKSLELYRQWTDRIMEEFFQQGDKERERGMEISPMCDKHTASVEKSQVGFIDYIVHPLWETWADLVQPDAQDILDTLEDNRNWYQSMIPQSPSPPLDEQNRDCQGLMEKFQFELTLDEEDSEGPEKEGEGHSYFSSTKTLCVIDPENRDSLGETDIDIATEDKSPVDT

SMILES: O=C(Cc1c(Cl)c[n+]([O-])cc1Cl)c1ccc(OC(F)F)c2c1OC1(CCS(=O)(=O)CC1)O2 [Compound (I), 2-(3,5-Dichloro-1-oxido-pyridine-4-yl)-1-(7-difluoro-methoxy-2′,3′,5′,6′-tetrahydro-spiro[1,3-benzodioxole-2,4′-(4H)-thiopyran-1′,1′-dioxide]-4-yl)ethanone]
- times more potent than Roflumilast ([1]; (M)): 1.7 times
- times more potent than Roflumilast ([1]; (ng/mL)): 1.4 times
- Emax ([1]; Homo sapiens, 24 h, LPS 1 μg/mL, 24 hours, donor 1, Emax defined as TNF-α level in un-stimulated wells): 76%
- pEC50 ([1]; Homo sapiens, 24 h, LPS 1 μg/mL, 24 hours, donor 1): 8.27
- pEC50 [1, 4]: 7.74
- Emax [1, 4]: 79%
- pEC50 [1, 5]: 8.31
- Emax [1, 5]: 97%
- pEC50 [1, 6]: 7.60
- Emax [1, 6]: 66%
- pEC50 [1, 7]: 7.92
- Emax [1, 7]: 71%
- pEC50 [1, 8]: 7.70
- Emax [1, 8]: 80%
- pEC50 [1, 9]: 8.33
- Emax [1, 9]: 98%
- pEC50 [1, 10]: 7.32
- Emax [1, 10]: 83%
- EC50 ([1]; Homo sapiens, mean of 8 determinations (LPS and SEB, 24 and 48 hours, 2 donors), read-out: Geometric mean of EC50 values across different assay parameters): 12.6 nM and 0.00643 µg/mL
- Potency compared with roflumilast-N-oxide (in words) ([1]; LPS and SEB-induced TNF-α secretion): equipotent to—or slightly more potent than
- times more potent than apremilast ([1]; based on molar concentrations): 23 times
- times more potent than apremilast ([1]; based on ng/mL concentrations): 21 times
- pIC50 (PDE4C2): 6.98
- pIC50 (PDE4D1): 8.05
- pIC50 (PDE4B2): 8.22
- pIC50 (PDE4B1): 7.80
- pIC50 (PDE4B3): 8.52
- pIC50 (PDE4D4): 8.10
- pIC50 (PDE4D7): 8.52
- pIC50 (PDE4D5): 8.52
- pIC50 (PDE4D3 [2]): 8.10
- pIC50 (PDE4D2): 8.05
- Viability Emax, % (human PBMC): 7%
- pEC50 (human PBMC; Homo sapiens, PBMC): < 5.00
- inhibition at 0.1 µM (PDE4D3 [3]): 74%
